Values quoted from earlier work as cited in patent publication EP0700285B1, “A DRUG DELIVERY COMPOSITION FOR ALPHA-ADRENO RECEPTOR BLOCKING AGENTS” (SYNTHELABO, priority 1993, dated 1994).

- plasma elimination half life (mean) (after intravenous administration): 4.8 h
- mean half life (after oral administration): 4.8 h
- mean oral bioavailability (immediate release dosage form): 64%
- parent compound excreted unchanged in the urine (in vivo): 11%
- volume of distribution (in vivo): 2.5 L/kg
SMILES: COc1cc2nc(N(C)CCCNC(=O)C3CCCO3)nc(N)c2cc1OC (centres unmarked) [alfuzosin]
